Starred links: 1 amine or outer side, 2 acyl side, 3 side chain; linkers in the order of their positions; H or OH if unused. Non-standard residues stand in square brackets, D forms with d. Residues, ends and D or L forms follow the SMILES beside them. ξ: configuration not given here. *: point of attachment. X3 = CCc1cc(OC)ccc1-c1ccc(CC(N*)C(=S)NC(CCCc2ccccc2)C(N)=O)cc1; ξNMeBip(2'-Et,4'-OMe) = CCc1cc(OC)ccc1-c1ccc(CC(NC)C(=O)O)cc1; Leu(5,5,5,5',5',5'-F6) = N[C@@H](CC(C(F)(F)F)C(F)(F)F)C(=O)O; X4 = CCc1cc(OC)ccc1-c1ccc(CC(CNC(CCCc2ccccc2F)C(N)=O)N*)cc1; ξBip(2'-Et-4'-OMe) = CCc1cc(OC)ccc1-c1ccc(CC(N)C(=O)O)cc1; ξNva(5-(3,5-Me2-Ph)) = Cc1cc(C)cc(CCCC(N)C(=O)O)c1; ξNMeNva(5-(2-F-Ph)) = CNC(CCCc1ccccc1F)C(=O)O; ξαMePhe(2-F) = CC(N)(Cc1ccccc1F)C(=O)O; X2 = O=C(C(CCCc1ccccc1Cl)N[*:1])[*:2]; NMeD = CN[C@@H](CC(=O)O)C(=O)O; aThr = C[C@H](O)[C@H](N)C(=O)O; Ac3c = NC1(C(=O)O)CC1; Aib = CC(C)(N)C(=O)O
Columns and labels:
Type in all cases: in vitro ADME
[1] = Stability in simulated gastric fluid; settings: 2 μM peptidomimetic, simulated gastric fluid pH 1.5, 37° C.; for half-life at 2 μM: read-out: half-life (t1/2) when incubated with simulated gastric fluid
Description: (§1) Reactions were terminated by the addition of TFA/H2O (15 mL, 10% (v/v)). […] The column was equilibrated with TFA/H20, at a flow rate of 1 mL/min.

DPP IV = DPP IV (Homo sapiens, UniProt P27487); experiment: Stability against DPP IV enzyme; settings: 37° C.; for % degradation of peptidomimetics in 24 h when incubated with DPP-IV enzyme: 2 μM peptidomimetic; for half-life at 2 μM: DPP IV enzyme, pH 7.8, 2 μM peptidomimetic, read-out: half-life (t1/2) when incubated with DPP-IV enzyme
DPP IV, sequence (P27487 whole entry, species assumed): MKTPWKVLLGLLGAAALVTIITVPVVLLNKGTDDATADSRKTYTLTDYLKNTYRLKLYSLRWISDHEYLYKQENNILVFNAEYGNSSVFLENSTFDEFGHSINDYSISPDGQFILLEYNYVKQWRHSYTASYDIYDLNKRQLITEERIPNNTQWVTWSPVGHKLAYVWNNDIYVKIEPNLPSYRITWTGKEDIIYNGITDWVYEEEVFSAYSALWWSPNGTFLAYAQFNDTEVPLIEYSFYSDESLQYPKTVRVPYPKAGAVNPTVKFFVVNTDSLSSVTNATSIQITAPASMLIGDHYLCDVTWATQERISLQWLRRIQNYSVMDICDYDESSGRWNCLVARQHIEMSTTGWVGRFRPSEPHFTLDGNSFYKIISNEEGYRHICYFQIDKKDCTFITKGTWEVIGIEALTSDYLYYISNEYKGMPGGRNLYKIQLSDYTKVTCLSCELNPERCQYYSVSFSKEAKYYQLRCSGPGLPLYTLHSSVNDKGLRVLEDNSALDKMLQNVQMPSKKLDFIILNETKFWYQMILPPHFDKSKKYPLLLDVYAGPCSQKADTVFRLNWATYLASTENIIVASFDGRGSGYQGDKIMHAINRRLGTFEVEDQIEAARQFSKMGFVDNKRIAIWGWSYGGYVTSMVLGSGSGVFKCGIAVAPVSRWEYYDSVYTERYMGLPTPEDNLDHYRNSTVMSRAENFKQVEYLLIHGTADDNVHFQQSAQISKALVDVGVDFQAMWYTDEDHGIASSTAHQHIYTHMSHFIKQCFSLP
Description: as §1

[2] = Stability in liver microsomes; settings: 2 μM peptidomimetic, human liver microsomes, 37° C.; for half-life at 2 μM: pH 7.8, read-out: half-life (t1/2) when incubated with liver microsomes
Description: as §1

[3] = Stability in human plasma; settings: 2 μM peptidomimetic, pooled human plasma, 37° C.; for half-life at 2 μM: pH 7.8, read-out: half-life (t1/2) when incubated with human plasma
Description: as §1

[4] = Stability in simulated intestinal fluid; settings: 2 μM peptidomimetic, simulated intestinal fluid pH 7.5, 37° C.; for half-life at 2 μM: read-out: half-life (t1/2) when incubated with simulated intestinal fluid
Description: as §1

| % degradation of peptidomimetics in 24 h when incubated with simulated gastric fluid [1] [%] | half-life at 2 μM [1] [min] | % degradation of peptidomimetics in 24 h when incubated with DPP-IV enzyme (DPP IV) [%] | half-life at 2 μM (DPP IV) [min] | half-life (t1/2) when incubated with liver microsomes [2] | % degradation of peptidomimetics in 24 h when incubated with liver microsomes [2] [%] | % degradation of peptidomimetics in 24 h when incubated with human plasma [3] [%] | half-life at 2 μM [3] [min] | % degradation of peptidomimetics in 24 h when incubated with simulated intestinal fluid [4] [%] | half-life at 2 μM [4] [min] | half-life at 2 μM [2] [min] | half-life (t1/2) when incubated with human plasma [3] | half-life (t1/2) when incubated with simulated gastric fluid [1] | half-life (t1/2) when incubated with simulated intestinal fluid [4] | SMILES |
| --- | --- | --- | --- | --- | --- | --- | --- | --- | --- | --- | --- | --- | --- | --- |
| 00 | > 1440 | 00 | > 1440 | (5) h | 32 | 00 | > 1440 | 00 | > 1440 | – | – | – | – | CCc1cc(OC)ccc1-c1ccc(CC(C(=O)N(C)C(CCCc2ccccc2F)C(N)=O)N(C)C(=O)[C@H](CC(=O)O)N(C)C(=O)[C@H](CO)NC(=O)[C@@H](NC(=O)C(C)(Cc2ccccc2F)NC(=O)[C@@H](NC(=O)CNC(=O)[C@H](CC(C(F)(F)F)C(F)(F)F)NC(=O)C(C)(C)NC(=O)[C@@H](N)Cc2c[nH]cn2)[C@H](C)O)[C@H](C)O)cc1 (some centres unmarked) [compound 221] (H-H[Aib][Leu(5,5,5,5',5',5'-F6)]G[aThr][ξαMePhe(2-F)][aThr]S[NMeD][ξNMeBip(2'-Et,4'-OMe)][ξNMeNva(5-(2-F-Ph))]-NH2) |
| 100 | 30 | 72 | – | – | 100 | 70 | – | 100 | 30 | 30 | (9) h | – | – | CCc1cc(OC)ccc1-c1ccc(CC(NC(=O)[C@H](CC(=O)O)NC(=O)[C@H](CO)NC(=O)[C@@H](NC(=O)C(C)(Cc2ccccc2F)NC(=O)[C@@H](NC(=O)CNC(=O)[C@H](CC(C(F)(F)F)C(F)(F)F)NC(=O)C(C)(C)NC(=O)[C@@H](N)Cc2c[nH]cn2)[C@@H](C)O)[C@@H](C)O)C(=O)NC(CCCc2ccccc2)C(N)=O)cc1 (some centres unmarked) [compound 234] |
| 00 | > 1440 | 00 | > 1440 | (5) h | 33 | 00 | > 1440 | 00 | > 1440 | – | – | – | – | CCc1cc(OC)ccc1-c1ccc(CC(NC(=O)[C@H](CC(=O)O)NC(=O)[C@H](CO)NC(=O)[C@@H](NC(=O)C(C)(Cc2ccccc2F)NC(=O)[C@@H](NC(=O)CNC(=O)[C@H](CC(C(F)(F)F)C(F)(F)F)NC(=O)C(C)(C)NC(=O)[C@@H](N)Cc2c[nH]cn2)[C@H](C)O)[C@H](C)O)C(=S)NC(CCCc2ccccc2)C(N)=O)cc1 (some centres unmarked) [compound 219] (H-H[Aib][Leu(5,5,5,5',5',5'-F6)]G[aThr][ξαMePhe(2-F)][aThr]SD-X3) |
| 100 | 30 | 70 | – | – | 100 | 71 | – | 100 | 30 | 30 | (9) h | – | – | CCc1cc(OC)ccc1-c1ccc(CC(NC(=O)[C@H](CC(=O)O)NC(=O)[C@H](CO)NC(=O)[C@@H](NC(=O)C(C)(Cc2ccccc2F)NC(=O)[C@@H](NC(=O)CNC(=O)[C@H](CC(C(F)(F)F)C(F)(F)F)NC(=O)C(C)(C)NC(=O)[C@@H](N)Cc2c[nH]cn2)[C@H](C)O)[C@H](C)O)C(=O)NC(CCCc2ccccc2F)C(N)=O)cc1 (some centres unmarked) [compound 229] |
| 00 | > 1440 | 00 | > 1440 | (5) h | 32 | 00 | > 1440 | 00 | > 1440 | – | – | – | – | CCc1cc(OC)ccc1-c1ccc(CC(CNC(CCCc2ccccc2)C(N)=O)NC(=O)[C@H](CC(=O)O)NC(=O)[C@H](CO)NC(=O)[C@@H](NC(=O)C(C)(Cc2ccccc2F)NC(=O)[C@@H](NC(=O)CNC(=O)[C@H](CC(C(F)(F)F)C(F)(F)F)NC(=O)C(C)(C)NC(=O)[C@@H](N)Cc2c[nH]cn2)[C@H](C)O)[C@H](C)O)cc1 (some centres unmarked) [compound 215] |

Second part, the compound before the results:

| SMILES | % degradation of peptidomimetics in 24 h when incubated with simulated gastric fluid [1] [%] | half-life at 2 μM [1] [min] | % degradation of peptidomimetics in 24 h when incubated with DPP-IV enzyme (DPP IV) [%] | half-life at 2 μM (DPP IV) [min] | half-life (t1/2) when incubated with liver microsomes [2] | % degradation of peptidomimetics in 24 h when incubated with liver microsomes [2] [%] | % degradation of peptidomimetics in 24 h when incubated with human plasma [3] [%] | half-life at 2 μM [3] [min] | % degradation of peptidomimetics in 24 h when incubated with simulated intestinal fluid [4] [%] | half-life at 2 μM [4] [min] | half-life at 2 μM [2] [min] | half-life (t1/2) when incubated with human plasma [3] | half-life (t1/2) when incubated with simulated gastric fluid [1] | half-life (t1/2) when incubated with simulated intestinal fluid [4] |
| --- | --- | --- | --- | --- | --- | --- | --- | --- | --- | --- | --- | --- | --- | --- |
| CCc1cc(OC)ccc1-c1ccc(CC(NC(=O)[C@H](CC(=O)O)NC(=O)[C@H](CO)NC(=O)[C@@H](NC(=O)[C@H](Cc2ccccc2)NC(=O)[C@@H](NC(=O)CNC(=O)[C@H](CCC(N)=O)NC(=O)[C@H](C)NC(=O)[C@@H](N)Cc2c[nH]cn2)[C@@H](C)O)[C@@H](C)O)C(=O)NC(CCCc2cc(C)cc(C)c2)C(N)=O)cc1 (some centres unmarked) [compound 14] (H-HAQGTFTSD[ξBip(2'-Et-4'-OMe)][ξNva(5-(3,5-Me2-Ph))]-NH2) | 12 | – | 74 | 540 | – | 83 | 75 | 480 | 46 | – | 60 | – | (8) h | (6) h |
| CCc1cc(OC)ccc1-c1ccc(CC(NC(=O)[C@H](CC(=O)O)NC(=O)[C@H](CO)NC(=O)[C@@H](NC(=O)C(C)(Cc2ccccc2F)NC(=O)[C@@H](NC(=O)CNC(=O)[C@H](CC(C(F)(F)F)C(F)(F)F)NC(=O)C(C)(C)NC(=O)[C@@H](N)Cc2c[nH]cn2)[C@H](C)O)[C@@H](C)O)C(=O)NC(CCCc2ccccc2)C(N)=O)cc1 (some centres unmarked) [compound 226] | 100 | 30 | 74 | – | – | 100 | 75 | – | 100 | 30 | 30 | (9) h | – | – |
| CCc1cc(OC)ccc1-c1ccc(CC(NC(=O)[C@H](CC(=O)O)NC(=O)[C@H](CO)NC(=O)[C@@H](NC(=O)[C@H](Cc2ccccc2)NC(=O)[C@@H](NC(=O)CNC(=O)[C@H](CCC(N)=O)NC(=O)C2(NC(=O)[C@@H](N)Cc3c[nH]cn3)CC2)[C@@H](C)O)[C@@H](C)O)C(=O)NC(CCCc2ccccc2Cl)C(N)=O)cc1 (some centres unmarked) [compound 74] (H-H[Ac3c]QGTFTSD[ξBip(2'-Et-4'-OMe)][X2]-NH2) | 100 | 30 | 76 | – | – | 100 | 78 | – | 100 | 30 | 30 | (9) h | – | – |
| CCc1cc(OC)ccc1-c1ccc(CC(NC(=O)[C@H](CC(=O)O)NC(=O)[C@H](CO)NC(=O)[C@@H](NC(=O)[C@H](Cc2ccccc2)NC(=O)[C@@H](NC(=O)CNC(=O)[C@H](CCC(N)=O)NC(=O)C2(C)CCCN2C(=O)[C@@H](N)Cc2c[nH]cn2)[C@@H](C)O)[C@@H](C)O)C(=O)NC(CCCc2ccc(Cl)cc2C)C(N)=O)cc1 (single isomer, unassigned) [compound 12] | 14 | – | 76 | 540 | – | 80 | 78 | 480 | 43 | – | 60 | – | (8) h | (6) h |
| CCc1cc(OC)ccc1-c1ccc(CC(CNC(CCCc2ccccc2F)C(N)=O)NC(=O)[C@H](CC(=O)O)NC(=O)[C@H](CO)NC(=O)[C@@H](NC(=O)C(C)(Cc2ccccc2F)NC(=O)[C@@H](NC(=O)CNC(=O)[C@H](CC(C(F)(F)F)C(F)(F)F)NC(=O)C(C)(C)NC(=O)[C@@H](N)Cc2c[nH]cn2)[C@H](C)O)[C@H](C)O)cc1 (some centres unmarked) [compound 214] (H-H[Aib][Leu(5,5,5,5',5',5'-F6)]G[aThr][ξαMePhe(2-F)][aThr]SD-X4) | 100 | 30 | 76 | – | – | 100 | 78 | – | 100 | 30 | 30 | (9) h | – | – |
